Measured values as given in PMC5412315, “Wedelolactone Acts as Proteasome Inhibitor in Breast Cancer Cells” (International Journal of Molecular Sciences, 2017).

Legend:
bovine 20S proteasome = biological target: T1, bovine 20S proteasome (Bos taurus, UniProt Q32KL2); assay: Proteasome activity in vitro, commercially available 20S proteasome; type: biochemical; settings: Suc-LLVY-AMC, 1 h, read-out: IC50, chymotrypsin-like activity
T1 construct: purchased UBPBio A1400
Method: (§1) Figure 2 Wedelolactone inhibits chymotrypsin-like, trypsin-like, and caspase-like activities of purified 26S and 20S proteasome complexes in vitro. Wedelolactone (w) was added at various concentrations to reaction mixture containing either (A) 26S proteasome purified from MDA-MB-231 cells or (B) commercially available 20S proteasome, and fluorogenic substrate (Suc-LLVY-AMC for testing chymotrypsin-like, Z-LLE-AMC for caspase-like, and Boc-LRR-AMC for trypsin-like activities). Fluorescence was measured after 1 h incubation. MG132 was used as a positive control. The data represent the mean values from three independent experiments. Error bars indicate the SD. * indicates a significant (p < 0.05) difference in proteolytic activities between reaction mixtures containing wedelolactone/MG132 and DMSO.
(§2) Chymotrypsin-like, trypsin-like and caspase-like proteasome activities were determined using Proteasome Activity Fluorometric Assay Kit II (J4120, UBPBio) according to manufacturer’s instructions. […] Fluorescence was measured by TECAN infinite 200 plate reader (TECAN, Mannedorf, Switzerland) for 1 h at 37 °C.

[1] = test system: CDKN1A, CDKN1B, TP53 and BAX genes in MDA-MB-231, MDA-MB-468 and T47D cells; assay: qPCR of CDKN1A, CDKN1B, TP53 and BAX transcripts; type: cell-based, human; settings: 10 h, all three cell lines
Method: (§3) Figure 3 Multiubiquitinated and high turnover proteins accumulate in wedelolactone-treated breast cancer cells. MDA-MB-231, MDA-MB-468, and T47D cells were treated with various concentrations of wedelolactone or solvent for 10 h. (A) Protein extracts were subsequently analyzed by SDS-PAGE and immunoblotting using p21-, p27-, p53-, Bax-, and ubiquitin-specific antibodies. Treatment with MG132 served as a positive control; (B) Transcripts of CDKN1A, CDKN1B, TP53 and BAX genes were quantified using qPCR.
1 × 10^6 cells were seeded in 5 mL dishes. Next day, the cells were exposed to various concentrations of wedelolactone or DMSO for 10 h. Cells were harvested and total RNA was isolated using GenElute Mammalian Total RNA Miniprep kit (Sigma-Aldrich). For cDNA synthesis, 1 μg of total RNA was reverse-transcribed using the QuantiTect Reverse Transcription kit (Qiagen, Hilden, Germany) according to the manufacturer’s instructions in a final reaction volume of 20 μL. Expression of CDKN1A, CDKN1B, TP53 and BAX genes was determined using the target-specific primers (Table S1) and KAPA SYBR FAST qPCR MASTER MIX (KK460, Kapa Biosystems, Cambridge, MA, USA) on LightCycler 480 II (Roche, Basel, Switzerland). Expression of the reference GAPDH gene (probe 4326317E, ThermoFisher Scientific, Waltham, MA, USA) was used for data normalization.

breast cancer cell lines = test system: breast cancer cell lines; set-up: method as in PMID 21315506, PMID 22733624; settings: all three breast cancer cell lines, at concentrations corresponding to the IC50 values; cited from earlier work
[2] = test system: p21, p27, p53, Bax and multiubiquitinated proteins in MDA-MB-231, MDA-MB-468 and T47D cells; assay: Immunoblotting of polyubiquitinated and short-lived proteins; type: cell-based, human; settings: 10 h, all three cell lines
Method: as §3
5 × 10^5 cells were seeded in 6-well plates. The next day, the cells were exposed to various concentrations of wedelolactone, DMSO, or 10 μM MG132 for 10 h. Cells were harvested and lysed as described previously. Cell lysates were subjected to SDS–PAGE and immunoblotted. Sample loading was normalized according to protein concentration determined by DC protein assay (Biorad). Blots were probed with anti-ubiquitin (3933S; Cell Signaling Technology, Inc., Beverly, MA, USA), anti-p21, anti-p27 (sc-817 and sc-528; Santa Cruz Biotechnology Inc., Santa Cruz, CA, USA), anti-p53, anti-Bax or anti-Myc-Tag (9282, 5023 and 2276S; Cell Signaling Technology), anti-α-tubulin antibodies (T9026; Sigma-Aldrich), and secondary antibodies conjugated with peroxidase (Sigma-Aldrich). […]

[3] = test system: MDA-MB-231, MDA-MB-468 and T47D cells over-expressing CTR1; assay: Cell mortality by PI exclusion assay (flow-cytometry) in copper-loaded vs control cells; type: cell-based, human; settings: 48 h, CTR1 overexpression with/without 25 μM copper sulfate pretreatment 24 h
Method: (§4) Figure 4 Copper loading enhances cytotoxicity and ROS production in wedelolactone-treated breast cancer cells. MDA-MB-231, MDA-MB-468, and T47D cells were transiently transfected with pCNDA3.1-hCTR1-N-Myc (CTR1) or control pCDNA3.1 plasmids (cmv), pretreated with copper sulfate (Cu) for 24 h and subsequently treated with wedelolactone (w) or solvent (DMSO) in fresh media. (A) Cells were harvested and expression of exogenous CTR1 protein was confirmed by SDS-PAGE followed by immunoblotting with the Myc-Tag antibody; (B) Relative copper concentration in cell lysates was analyzed by SALD ICP MS. Data for copper are presented as an integrated ^63Cu/^60Ni signal ratio. (C) Cell mortality and (D) ROS production were evaluated after PI/DHE staining using flow-cytometry. The data represent the mean values from three independent experiments. Error bars indicate the SD. * indicates a significant (p < 0.05) difference.
3 × 10^5 cells were seeded in 6-well plates. After 24 h, transient transfection was performed, using 3 μL of Lipofectamine LTX reagent (Invitrogen) with a mixture containing 1.5 μg of pCNDA3.1-hCTR1-N-Myc or control pCDNA3.1 plasmid and 1.5 μL of PLUS reagent (Invitrogen). […] Cytotoxicity of wedelolactone was analyzed 48 h later by PI staining (1 μg/mL) using flow-cytometry as described previously.

proteasome in T47D cells = biological target: T2, proteasome in T47D cells (Homo sapiens, UniProt P28074); assay: Proteasome activity in cell extracts of treated T47D cells (fluorogenic substrates); type: cell-based; settings: T47D cells treated 10 h, cell extract, Suc-LLVY-AMC; read-out: IC50, chymotrypsin-like activity of proteasome
T2 construct: endogenous in cells; host or cells: MDA-MB-231, MDA-MB-468 or T47D cells (treated 10 h, then lysed)
T2 sequence (P28074 60-263): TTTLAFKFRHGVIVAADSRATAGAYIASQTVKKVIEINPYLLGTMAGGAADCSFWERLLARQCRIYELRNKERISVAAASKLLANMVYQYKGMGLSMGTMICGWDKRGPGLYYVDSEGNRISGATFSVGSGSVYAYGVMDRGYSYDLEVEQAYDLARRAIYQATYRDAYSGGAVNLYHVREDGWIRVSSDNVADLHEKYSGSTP
T2 sequence (P28072 1-239 partner): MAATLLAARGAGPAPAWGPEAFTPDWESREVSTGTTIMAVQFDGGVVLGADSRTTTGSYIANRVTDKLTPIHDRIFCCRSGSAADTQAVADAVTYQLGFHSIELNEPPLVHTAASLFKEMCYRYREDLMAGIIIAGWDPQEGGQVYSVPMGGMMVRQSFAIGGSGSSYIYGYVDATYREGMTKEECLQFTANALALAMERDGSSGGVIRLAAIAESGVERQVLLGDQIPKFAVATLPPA
T2 sequence (Q99436 44-277 partner): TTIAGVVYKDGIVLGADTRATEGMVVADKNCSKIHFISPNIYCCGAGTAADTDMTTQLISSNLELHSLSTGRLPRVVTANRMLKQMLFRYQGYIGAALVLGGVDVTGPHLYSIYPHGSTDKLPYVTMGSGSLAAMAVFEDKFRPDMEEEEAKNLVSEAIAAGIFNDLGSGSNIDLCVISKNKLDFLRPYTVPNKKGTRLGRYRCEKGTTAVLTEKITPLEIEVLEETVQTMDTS
Method: (§5) Figure 1 Wedelolactone inhibits chymotrypsin-like, trypsin-like and caspase-like activities in breast cancer cells. MDA-MB-231 (A); MDA-MB-468 (B); and T47D (C) cells were treated with various concentrations of wedelolactone (w) for 10 h. Proteasome activities were evaluated in cell extracts using the activity-specific fluorogenic substrates (Suc-LLVY-AMC for testing chymotrypsin-like, Z-LLE-AMC for caspase-like, and Boc-LRR-AMC for trypsin-like activities). Treatment with MG132 served as a positive control. The data represent the mean values from three independent experiments. Error bars indicate the SD. * indicates a significant (p < 0.05) difference between wedelolactone-/MG132- and DMSO-treated cells.
(§6) MDA-MB-231, MDA-MB-468 and T47D (6 × 10^5) cells were seeded in 5 mL of culture media, exposed to various concentrations of wedelolactone, DMSO or 10 μM MG132 for 10 h. Cells were harvested, resuspended in cell lysis buffer (40 mM Tris, pH 7.2, 50 mM NaCl, 2 mM β-mercaptoethanol, 2 mM ATP, 5 mM MgCl, 10% Glycerol) and briefly sonicated using an Ultrasonic Processor UP100H (Hielscher, Ringwood, NJ, USA). Cell lysates were cleared by centrifugation and protein concentration in supernatant was determined using DC protein assay (Biorad, Hercules, CA, USA). […] Fluorescence was measured by TECAN infinite 200 plate reader (TECAN) for 1 h at 37 °C.

[4] = test system: MDA-MB-231, MDA-MB-468 and T47D cells over-expressing CTR1; assay: ROS production by DHE staining (flow-cytometry) in copper-loaded vs control cells; type: cell-based, human; settings: 10 h, CTR1 overexpression with/without 25 μM copper sulfate pretreatment 24 h
Method: as §4
3 × 10^5 cells were seeded in 6-well plates. After 24 h, transient transfection was performed as described in chapter 4.6. […] Reactive oxygen species (ROS) were measured using flow-cytometry (BD FACSVerse, BD Biosciences, Franklin Lakes, NJ, USA) at an excitation wavelength of 485 nm and an emission wavelength of 538 nm. Data were analyzed using BD FACSuite software (BD Biosciences).

[5] = biological target: T3, 26S proteasome purified from MDA-MB-231 cells (Homo sapiens, UniProt P28074); assay: Proteasome activity in vitro, purified 26S proteasome; type: biochemical; settings: Suc-LLVY-AMC, 1 h, read-out: IC50, chymotrypsin-like activity
T3 construct: Human 26S proteasome was purified from 8 × 10^6 of MDA-MB-231 cells; endogenous in cells; host or cells: MDA-MB-231 cells; purified with The Rapid 26S Proteasome Purification Kit (J4310, UBPBio)
Method: as §1
Human 26S proteasome was purified from 8 × 10^6 of MDA-MB-231 cells using The Rapid 26S Proteasome Purification Kit (J4310, UBPBio) according to manufacturer’s instructions.
as §2

[6] = biological target: T4, proteasome in breast cancer cells (MDA-MB-231, MDA-MB-468, T47D) (Homo sapiens, UniProt P28072+P28074+Q99436); assay: Proteasome activity in breast cancer cell lines (statements on all three lines); type: cell-based; settings: 10 h, cell extracts
T4 construct: endogenous in cells; host or cells: MDA-MB-231, MDA-MB-468 and T47D cells; in A12 transiently transfected with hCTR1-N-Myc, with or without copper loading, while the proteasome itself stays endogenous
T4 sequence (P28074 60-263): T2 sequence (P28074 60-263)
T4 sequence (P28072 1-239): T2 sequence (P28072 1-239 partner)
T4 sequence (Q99436 44-277): T2 sequence (Q99436 44-277 partner)
Method: as §5, §6

[7] = test system: purified 26S and 20S proteasome complexes; assay: Proteasome activity in vitro (statements on purified 26S and 20S together); type: biochemical
Method: as §1, §2

[8] = biological target: T5, proteasome in MDA-MB-468 cells (Homo sapiens, UniProt P28074); assay: Proteasome activity in cell extracts of treated MDA-MB-468 cells (fluorogenic substrates); type: cell-based; settings: MDA-MB-468 cells treated 10 h, cell extract, Suc-LLVY-AMC; read-out: IC50, chymotrypsin-like activity of proteasome
T5 construct: endogenous in cells; host or cells: MDA-MB-231, MDA-MB-468 or T47D cells (treated 10 h, then lysed)
T5 sequence (P28074 60-263): T2 sequence (P28074 60-263)
T5 sequence (P28072 1-239 partner): T2 sequence (P28072 1-239 partner)
T5 sequence (Q99436 44-277 partner): T2 sequence (Q99436 44-277 partner)
Method: as §5, §6

[9] = biological target: T6, proteasome in MDA-MB-231 cells (Homo sapiens, UniProt P28074); assay: Proteasome activity in cell extracts of treated MDA-MB-231 cells (fluorogenic substrates); type: cell-based; settings: MDA-MB-231 cells treated 10 h, cell extract, Suc-LLVY-AMC; read-out: IC50, chymotrypsin-like activity of proteasome
T6 construct: endogenous in cells; host or cells: MDA-MB-231, MDA-MB-468 or T47D cells (treated 10 h, then lysed)
T6 sequence (P28074 60-263): T2 sequence (P28074 60-263)
T6 sequence (P28072 1-239 partner): T2 sequence (P28072 1-239 partner)
T6 sequence (Q99436 44-277 partner): T2 sequence (Q99436 44-277 partner)
Method: as §5, §6

COc1cc(O)c2c(c1)oc(=O)c1c3cc(O)c(O)cc3oc21 [Wedelolactone]
IC50 (bovine 20S proteasome): 6.13 µM | Expression of CDKN1A, CDKN1B, TP53 and BAX genes [1]: did not affect expression of any of these genes | Growth arrest and apoptosis (breast cancer cell lines): induced growth arrest and apoptosis | Level of p21, p27, p53, Bax and multiubiquitinated proteins [2]: dose-dependent accumulation | Cytotoxicity (cell mortality), effect of copper loading [3]: enhanced by copper loading | IC50 (proteasome in T47D cells): 19.5 µM | ROS production, effect of copper loading [4]: Copper-loaded cells produced more ROS | IC50 [5]: 9.97 µM | Inhibition of chymotrypsin-like, trypsin-like and caspase-like activities of proteasome in cells [6]: inhibited all three proteolytic activities of proteasome | Inhibition of chymotrypsin-like, trypsin-like and caspase-like activities in vitro ([7]; purified 26S and 20S proteasome, 1 h): inhibited all three proteasomal activities in vitro in a dose-dependent manner | IC50 ([7]; summary over purified 26S and 20S proteasome, read-out: IC50 values for chymotrypsin-like inhibitory activity, in vitro): < 10 µM | IC50 [8]: 12.8 µM | IC50 [9]: 27.8 µM
